Measurements reported in ChEMBL document CHEMBL4699440, “Comprehensive review on the anti-bacterial activity of 1,2,3-triazole hybrids” (Eur J Med Chem, 2019).
Values after ≈ are worked out from the molar mass of the structure shown.

Tests used:
[1] = tested on: Trichophyton mentagrophytes; assay: Antifungal activity against Trichophyton mentagrophytes incubated for 3 to 4 days by serial plate dilution method; type: functional; conditions: time day 3-4
Aspergillus fumigatus = assay: Antifungal activity against Aspergillus fumigatus NCIM 902 incubated for 3 to 4 days by serial plate dilution method; type: functional; conditions: time day 3-4
Escherichia coli = assay: Antibacterial activity against Escherichia coli ATCC 25922 incubated for 16 to 18 hrs by serial plate dilution method; type: functional; conditions: time hrs 16-18
Staphylococcus aureus [2] = assay: Antibacterial activity against methicillin-resistant Staphylococcus aureus ATCC 25923 incubated for 16 to 18 hrs by serial plate dilution method; type: functional; conditions: time hrs 16-18
Aspergillus flavus = assay: Antifungal activity against Aspergillus flavus NCIM 524 incubated for 3 to 4 days by serial plate dilution method; type: functional; conditions: time day 3-4
Talaromyces marneffei = assay: Antifungal activity against Penicillium marneffei incubated for 3 to 4 days by serial plate dilution method; type: functional; conditions: time day 3-4
Klebsiella pneumoniae = assay: Antibacterial activity against Klebsiella pneumoniae incubated for 16 to 18 hrs by serial plate dilution method; type: functional; conditions: time hrs 16-18
Pseudomonas aeruginosa = assay: Antibacterial activity against Pseudomonas aeruginosa ATCC 27853 incubated for 16 to 18 hrs by serial plate dilution method; type: functional; conditions: time hrs 16-18
KB = assay: Cytotoxicity against human KB cells; type: cell-based; conditions: Homo sapiens, KB
Staphylococcus aureus [3] = assay: Antibacterial activity against Staphylococcus aureus; type: functional
Bacillus cereus = assay: Antibacterial activity against Bacillus cereus; type: functional

Row | Structure (SMILES) | MIC (Staphylococcus aureus [3]) | MIC (Bacillus cereus) | MIC [1] | MIC (Aspergillus fumigatus) | MIC (Escherichia coli) | MIC (Staphylococcus aureus [2]) | MIC (Aspergillus flavus) | MIC (Talaromyces marneffei) | MIC (Klebsiella pneumoniae) | MIC (Pseudomonas aeruginosa) | IC50 (KB)
1 | COc1cccc(/C=N/NC(=O)c2nnn(-c3cc(C(F)(F)F)nc4c(C(F)(F)F)cccc34)c2C)c1O |  |  | 6.25 µg/mL (≈ 11.6 µM) | 6.25 µg/mL (≈ 11.6 µM) | 6.25 µg/mL (≈ 11.6 µM) | 6.25 µg/mL (≈ 11.6 µM) | 6.25 µg/mL (≈ 11.6 µM) | 6.25 µg/mL (≈ 11.6 µM) | 6.25 µg/mL (≈ 11.6 µM) | 6.25 µg/mL (≈ 11.6 µM) | 
2 | COc1ccc(/C=N/NC(=O)c2nnn(-c3cc(C(F)(F)F)nc4c(C(F)(F)F)cccc34)c2C)cc1OC |  |  | 6.25 µg/mL (≈ 11.3 µM) | 6.25 µg/mL (≈ 11.3 µM) | 6.25 µg/mL (≈ 11.3 µM) | 6.25 µg/mL (≈ 11.3 µM) | 6.25 µg/mL (≈ 11.3 µM) | 6.25 µg/mL (≈ 11.3 µM) | 6.25 µg/mL (≈ 11.3 µM) | 6.25 µg/mL (≈ 11.3 µM) | 
3 | Cc1ccsc1/C=N/NC(=O)c1nnn(-c2cc(C(F)(F)F)nc3c(C(F)(F)F)cccc23)c1C |  |  | 6.25 µg/mL (≈ 12.2 µM) | 6.25 µg/mL (≈ 12.2 µM) | 6.25 µg/mL (≈ 12.2 µM) | 6.25 µg/mL (≈ 12.2 µM) | 6.25 µg/mL (≈ 12.2 µM) | 6.25 µg/mL (≈ 12.2 µM) | 6.25 µg/mL (≈ 12.2 µM) | 6.25 µg/mL (≈ 12.2 µM) | 
4 | COc1cccc(/C=N/NC(=O)c2nnn(-c3cc(C(F)(F)F)nc4c(C(F)(F)F)cccc34)c2C)c1 |  |  | 6.25 µg/mL (≈ 12 µM) | 6.25 µg/mL (≈ 12 µM) | 6.25 µg/mL (≈ 12 µM) | 6.25 µg/mL (≈ 12 µM) | 6.25 µg/mL (≈ 12 µM) | 6.25 µg/mL (≈ 12 µM) | 6.25 µg/mL (≈ 12 µM) | 6.25 µg/mL (≈ 12 µM) | 
5 | CC(=O)C(C)(C)C(=O)N1CC[C@@H](C(=O)NC(C)(C)C(=O)N[C@@H](C)C(=O)NC(C)(C)C(=O)N[C@@H](C)C(=O)N[C@@H](CCC(N)=O)C(=O)NC(C)(C)C(=O)N[C@H](C(=O)NC(C)(C)C(=O)NCC(=O)N[C@@H](CC(C)C)C(=O)NC(C)(C)C(=O)N2CCC[C@@H]2C(=O)N[C@H](C(=O)NC(C)(C)C(=O)NC(C)(C)C(=O)N[C@@H](CCC(N)=O)C(=O)N[C@@H](CCC(N)=O)C(=O)N[C@H](CO)Cc2ccccc2)C(C)C)C(C)C)C1 | 1.56 µg/mL (≈ 0.801 µM) | 1.56 µg/mL (≈ 0.801 µM) |  |  |  |  |  |  |  |  | 1.56 µg/mL (≈ 0.801 µM)

The next lines start with results.

Row | MIC (Staphylococcus aureus [3]) | MIC (Bacillus cereus) | Structure (SMILES) | MIC [1] | MIC (Aspergillus fumigatus) | MIC (Escherichia coli) | MIC (Staphylococcus aureus [2]) | MIC (Aspergillus flavus) | MIC (Talaromyces marneffei) | MIC (Klebsiella pneumoniae) | MIC (Pseudomonas aeruginosa) | IC50 (KB)
6 | 1.56 µg/mL (≈ 0.737 µM) | 1.56 µg/mL (≈ 0.737 µM) | CC(C)C[C@H](NC(=O)CNC(=O)C(C)(C)NC(=O)[C@@H](NC(=O)C(C)(C)NC(=O)[C@H](CCC(N)=O)NC(=O)[C@H](C)NC(=O)C(C)(C)NC(=O)[C@H](C)NC(=O)C(C)(C)NC(=O)[C@@H]1CCN(C(=O)C(C)(C)n2cc(-c3ccccc3C(F)(F)F)nn2)C1)C(C)C)C(=O)NC(C)(C)C(=O)N1CCC[C@@H]1C(=O)N[C@H](C(=O)NC(C)(C)C(=O)NC(C)(C)C(=O)N[C@@H](CCC(N)=O)C(=O)N[C@@H](CCC(N)=O)C(=O)N[C@H](CO)Cc1ccccc1)C(C)C |  |  |  |  |  |  |  |  | 2.9 µg/mL (≈ 1.37 µM)
7 | 1.56 µg/mL (≈ 0.737 µM) | 1.56 µg/mL (≈ 0.737 µM) | CC(C)C[C@H](NC(=O)CNC(=O)C(C)(C)NC(=O)[C@@H](NC(=O)C(C)(C)NC(=O)[C@H](CCC(N)=O)NC(=O)[C@H](C)NC(=O)C(C)(C)NC(=O)[C@H](C)NC(=O)C(C)(C)NC(=O)[C@@H]1CCN(C(=O)C(C)(C)n2cc(-c3cccc(C(F)(F)F)c3)nn2)C1)C(C)C)C(=O)NC(C)(C)C(=O)N1CCC[C@@H]1C(=O)N[C@H](C(=O)NC(C)(C)C(=O)NC(C)(C)C(=O)N[C@@H](CCC(N)=O)C(=O)N[C@@H](CCC(N)=O)C(=O)N[C@H](CO)Cc1ccccc1)C(C)C |  |  |  |  |  |  |  |  | 2.9 µg/mL (≈ 1.37 µM)
8 | 1.56 µg/mL (≈ 0.748 µM) | 1.56 µg/mL (≈ 0.748 µM) | CC(C)C[C@H](NC(=O)CNC(=O)C(C)(C)NC(=O)[C@@H](NC(=O)C(C)(C)NC(=O)[C@H](CCC(N)=O)NC(=O)[C@H](C)NC(=O)C(C)(C)NC(=O)[C@H](C)NC(=O)C(C)(C)NC(=O)[C@@H]1CCN(C(=O)C(C)(C)n2cc(-c3ccc(F)cc3F)nn2)C1)C(C)C)C(=O)NC(C)(C)C(=O)N1CCC[C@@H]1C(=O)N[C@H](C(=O)NC(C)(C)C(=O)NC(C)(C)C(=O)N[C@@H](CCC(N)=O)C(=O)N[C@@H](CCC(N)=O)C(=O)N[C@H](CO)Cc1ccccc1)C(C)C |  |  |  |  |  |  |  |  | 2.9 µg/mL (≈ 1.39 µM)
9 | 1.56 µg/mL (≈ 0.718 µM) | 1.56 µg/mL (≈ 0.718 µM) | CC(C)C[C@H](NC(=O)CNC(=O)C(C)(C)NC(=O)[C@@H](NC(=O)C(C)(C)NC(=O)[C@H](CCC(N)=O)NC(=O)[C@H](C)NC(=O)C(C)(C)NC(=O)[C@H](C)NC(=O)C(C)(C)NC(=O)[C@@H]1CCN(C(=O)C(C)(C)n2cc(-c3ccc4ccc5cccc6ccc3c4c56)nn2)C1)C(C)C)C(=O)NC(C)(C)C(=O)N1CCC[C@@H]1C(=O)N[C@H](C(=O)NC(C)(C)C(=O)NC(C)(C)C(=O)N[C@@H](CCC(N)=O)C(=O)N[C@@H](CCC(N)=O)C(=O)N[C@H](CO)Cc1ccccc1)C(C)C |  |  |  |  |  |  |  |  | 2.9 µg/mL (≈ 1.33 µM)
10 | 12.5 µg/mL (≈ 5.9 µM) | 12.5 µg/mL (≈ 5.9 µM) | CC(C)C[C@H](NC(=O)CNC(=O)C(C)(C)NC(=O)[C@@H](NC(=O)C(C)(C)NC(=O)[C@H](CCC(N)=O)NC(=O)[C@H](C)NC(=O)C(C)(C)NC(=O)[C@H](C)NC(=O)C(C)(C)NC(=O)[C@@H]1CCN(C(=O)C(C)(C)n2cc(-c3ccc(C(F)(F)F)cc3)nn2)C1)C(C)C)C(=O)NC(C)(C)C(=O)N1CCC[C@@H]1C(=O)N[C@H](C(=O)NC(C)(C)C(=O)NC(C)(C)C(=O)N[C@@H](CCC(N)=O)C(=O)N[C@@H](CCC(N)=O)C(=O)N[C@H](CO)Cc1ccccc1)C(C)C |  |  |  |  |  |  |  |  | 2.9 µg/mL (≈ 1.37 µM)
11 | 1.56 µg/mL (≈ 0.733 µM) | 1.56 µg/mL (≈ 0.733 µM) | COc1ccc2ccc(-c3cn(C(C)(C)C(=O)N4CC[C@@H](C(=O)NC(C)(C)C(=O)N[C@@H](C)C(=O)NC(C)(C)C(=O)N[C@@H](C)C(=O)N[C@@H](CCC(N)=O)C(=O)NC(C)(C)C(=O)N[C@H](C(=O)NC(C)(C)C(=O)NCC(=O)N[C@@H](CC(C)C)C(=O)NC(C)(C)C(=O)N5CCC[C@@H]5C(=O)N[C@H](C(=O)NC(C)(C)C(=O)NC(C)(C)C(=O)N[C@@H](CCC(N)=O)C(=O)N[C@@H](CCC(N)=O)C(=O)N[C@H](CO)Cc5ccccc5)C(C)C)C(C)C)C4)nn3)cc2c1 |  |  |  |  |  |  |  |  | 2.9 µg/mL (≈ 1.36 µM)
